Measured values published in ChEMBL document CHEMBL1122435, “Pyrrolopyrimidine nucleosides. 18. Synthesis and chemotherapeutic activity of 4-amino-7-(3-deoxy-beta-D-ribofuranosyl)pyrrolo[2,3-d] pyrimidine-5-carboxamide (3'-deoxysangivamycin) and 4-amino-7-(2-deoxy-beta-D-ribofuranosyl)pyrrolo[2,3-d] pyrimidine-5-carboxamide (2'-deoxysangivamycin)” (1983).

Tests used:
L1210 [1] = assay: Increase in life span for drug treated L1210-bearing mice at the dose of 160 mg/kg upon intraperitoneal administration; format: functional; conditions: Mus musculus, L1210, ip
L1210 [2] = assay: Increase in life span for drug treated L1210-bearing mice at the dose of 0.25 mg/kg upon intraperitoneal administration; format: functional; conditions: Mus musculus, L1210, ip
L1210 [3] = assay: Occurrence of drug-induced shortening of life span resulting from treatment at 0.25 mg/kg dose in L1210-bearing mice; y=yes; format: functional, organism-based; set-up: dose 0.25 mg/kg; conditions: Mus musculus
L1210 [4] = assay: Increase in life span for drug treated L1210-bearing mice at the dose of 128 mg/kg upon intraperitoneal administration; format: functional; conditions: Mus musculus, L1210, ip
L1210 [5] = assay: Occurrence of drug-induced shortening of life span resulting from treatment at 100 mg/kg dose in L1210-bearing mice; y=yes; format: functional, organism-based; set-up: dose 100 mg/kg; conditions: Mus musculus
L1210 [6] = assay: Increase in life span for drug treated L1210-bearing mice at the dose of 100 mg/kg upon intraperitoneal administration; format: functional; conditions: Mus musculus, L1210, ip

Molecule `NC(=O)c1cn([C@H]2C[C@H](O)[C@@H](CO)O2)c2ncnc(N)c12` has an ILS at 160 mg/kg (L1210 [1]) of 4%.

For `NC(=O)c1cn([C@@H]2O[C@H](CO)[C@@H](O)[C@H]2O)c2ncnc(N)c12` [SANGIVAMYCIN], the ILS at 0.25 mg/kg (L1210 [2]) was 37% and the Toxicity (L1210 [3]) was “Yes”.

With `NC(=O)c1cn(C2OC(CO)CC2O)c2ncnc(N)c12` (stereo unspecified) the ILS at 128 mg/kg (L1210 [4]) was 128%.

With `C[C@H]1OC(n2cc(C(N)=O)c3c(N)ncnc32)[C@H](O)[C@@H]1O` (stereo partly specified) the Toxicity (L1210 [5]) was “Yes” and the ILS at 100 mg/kg (L1210 [6]) was 5%.
